US20250109127A1, “METHODS OF USE OF PHENOXYPROPYLAMINE COMPOUNDS TO TREAT DEPRESSION” (Minerva Neurosciences, Inc., priority 2013, published 2025)
Where “and” joins values, the source holds several entries; their conditions need not be identical. Equal entries are not always repeated. Structures can show the parent of a compound that is named as a salt.

Test system: HVA release in the rat prefrontal cortex
Assay: Microdialysis: HVA release in prefrontal cortex after I.P. administration
Assay type: in vivo
Settings: for HVA release (% of basal levels) measured in dialysates: individual animals, hydrochloride, 3 mg/kg; for HVA release (% of basal levels) measured in dialysates, MEAN / HVA (% of respective basal) MEAN: n = 8; for HVA (% of respective basal) MEAN: SON-117 group 0.1 mg/kg I.P.
Procedure: The aim of the study was to evaluate, using microdialysis, the effects of an intraperitoneal (I.P.) administration in rats of three different doses of SON-117 on dopamine and its metabolites, serotonin and its metabolite (5-HIAA), and norepinephrine levels in prefrontal cortex.
Thirty-two adult male Wistar rats were used for the whole study (4 groups of eight animals planned for the study, Table 1).
Surgery was performed on rats weighing about 300 g at the beginning of the experiments. Rats were anaesthetized with Ketamine (50 mg/kg) & Xylazine (15 mg/kg) by intramuscular administration. The animals were placed in a stereotaxic apparatus in the flat-skull position at a constant setting of −3.3 mm between ear bars and the incisor bar. The animals were treated with a local anesthesic (xylocaine 1%, Astra Zeneca) and an analgesic (Temgesic, from Schering Plough, 0.05 mg/kg, s.c.). A rostrocaudal midline incision was made with a lancet to expose the dorsal skull surface. The “stereotaxic zero” was defined by the Bregma in accordance with Paxinos and Watson's atlas (1986). A hole was drilled in the skull with a drill and the meninges were pierced with a sterile needle to implant a CMA12 guide cannula which later received the dialysis probe.
Coordinates used for implanting guide cannula in prefrontal cortex from Bregma were anteroposterior 3.7 mm, mediolateral 0.8 mm, and dorsoventral −2 mm (top of the probe was at −5 mm). The guide cannula was fixed to the skull with two stainless steel screws (1.88 mm outside diameter) anchored. An application of dental cement was added. A plastic collar allowed each animal to be tethered to a Swivel assembly of the CMA 120 awake animal system. Following surgery, rats were kept in individual cages and allowed to recover for a minimum of 3-5 days before the experimentation. The rats were handled and put in plastic bowl for 10 min at least every day to habituate the animals to their new environment for the dialysis. An I.P. administration with saline was also performed every day.
Dialysis probes (CMA12/3 mm, membrane, 20 kD cut-off, Carnegie Medicine, Stockholm, Sweden), were carefully washed before inserting into the guide cannula. The wash was performed with the artificial cerebrospinal fluid (aCSF) medium (NaCl 147 mM, KCl 2.7 mM, CaCl2 1.2 mM, MgCl2 0.85 mM) at room temperature. The dialysis system was then equilibrated at 20° C. at a perfusion rate of 1 μl/min with a Carnegie pump (CMA100). All catheters (FEP tubing, internal volume of 1.2 μl/10 cm, and tubing adaptors) used for microdialysis were treated in the same conditions.
The probes duly prepared were inserted into the guide cannula and the CMA120 Swivel assembly secured to the animal using a plastic collar. Flow through the dialysis probe with aCSF was maintained at a rate of 1 μl/min during the whole experimentation. The first four fractions (corresponding to 2 hours) were discarded to avoid the effects of parenchymal disturbance and to ensure that an approximate steady-state level was reached. Fractions were then collected over a period of 8.5 h during which time the animals remained quiet. The dialysates were automatically collected with an autosampler (microfraction collector CMA 140, Carnegie Medicin) and stored at −80° C. until analysis. […] Perfusion was then maintained for 7 hours with aCSF. The dialysates (30 μl) were collected into 300 μl vials, transferred into dry ice and then kept frozen (−80° C.) until analysis. Frozen samples were shipped to a partner for analysis. At the end of the microdialysis study, a PBS with colored ink was perfused through the probe in order to visualize the dialyzed area.
Catecholamine assay: Concentrations of dopamine, DOPAC, HVA, 5-HIAA, 5-HT, and norepinephrin were determined for each sample by HPLC coupled with electrochemical detection.

[1] = SON-117 3 mg/kg IP, T1 h 30-T2 h
[2] = SON-117 3 mg/kg IP, T1 h-T1 h 30
[3] = SON-117 3 mg/kg IP, T2 h 30-T3 h
[4] = SON-117 3 mg/kg IP, T2 h-T2 h 30
[5] = SON-117 3 mg/kg IP, T3 h 30-T4 h
[6] = SON-117 3 mg/kg IP, T3 h-T3 h 30
[7] = SON-117 3 mg/kg IP, T4 h 30-T5 h
[8] = SON-117 3 mg/kg IP, T4 h-T4 h 30
[9] = SON-117 3 mg/kg IP, T5 h 30-T6 h
[10] = SON-117 3 mg/kg IP, T5 h-T5 h 30
[11] = SON-117 3 mg/kg IP, T6 h 30-T7 h
[12] = SON-117 3 mg/kg IP, T6 h-T6 h 30

## Cc1nnc(-c2cc3c(OC[C@@H](O)CN4CCC(c5ccc(Cl)c(Cl)c5)CC4)cccc3o2)o1 [SON-117, (S)-1-(4-(3,4-dichlorophenyl)piperidino)-3-(2-(5-methyl-1,3,4-oxadiazol-2-yl)benzo(b)furan-4-yloxy)-2-propanol hydrochloride]
SON-117 3 mg/kg IP, T30-T1 h
  HVA release (% of basal levels) measured in dialysates: 87.52 % of basal levels and 80.65 % of basal levels and 76.40 % of basal levels and 105.83 % of basal levels and 105.61 % of basal levels and 95.14 % of basal levels and 127.36 % of basal levels and 107.87 % of basal levels
[1]
  HVA release (% of basal levels) measured in dialysates, MEAN: 106.02 % of basal levels
  HVA release (% of basal levels) measured in dialysates: 84.71 % of basal levels and 105.56 % of basal levels and 94.73 % of basal levels and 137.50 % of basal levels and 83.65 % of basal levels and 91.30 % of basal levels and 115.23 % of basal levels and 135.51 % of basal levels
[2]
  HVA release (% of basal levels) measured in dialysates, MEAN: 103.62 % of basal levels
  HVA release (% of basal levels) measured in dialysates: 91.12 % of basal levels and 84.36 % of basal levels and 104.08 % of basal levels and 126.08 % of basal levels and 106.58 % of basal levels and 89.86 % of basal levels and 137.31 % of basal levels and 89.55 % of basal levels
[3]
  HVA release (% of basal levels) measured in dialysates, MEAN: 102.12 % of basal levels
  HVA release (% of basal levels) measured in dialysates: 105.21 % of basal levels and 84.02 % of basal levels and 95.14 % of basal levels and 119.75 % of basal levels and 76.92 % of basal levels and 96.18 % of basal levels and 146.40 % of basal levels and 93.34 % of basal levels
[4]
  HVA release (% of basal levels) measured in dialysates, MEAN: 98.10 % of basal levels
  HVA release (% of basal levels) measured in dialysates: 100.40 % of basal levels and 90.71 % of basal levels and 80.00 % of basal levels and 109.73 % of basal levels and 85.44 % of basal levels and 89.46 % of basal levels and 133.10 % of basal levels and 95.93 % of basal levels
[5]
  HVA release (% of basal levels) measured in dialysates, MEAN: 98.25 % of basal levels
  HVA release (% of basal levels) measured in dialysates: 101.22 % of basal levels and 90.35 % of basal levels and 83.39 % of basal levels and 123.68 % of basal levels and 80.06 % of basal levels and 94.85 % of basal levels and 114.56 % of basal levels and 97.90 % of basal levels
[6]
  HVA release (% of basal levels) measured in dialysates, MEAN: 105.01 % of basal levels
  HVA release (% of basal levels) measured in dialysates: 99.13 % of basal levels and 88.16 % of basal levels and 98.47 % of basal levels and 148.68 % of basal levels and 75.12 % of basal levels and 89.56 % of basal levels and 118.49 % of basal levels and 122.51 % of basal levels
[7]
  HVA release (% of basal levels) measured in dialysates, MEAN: 92.26 % of basal levels
  HVA release (% of basal levels) measured in dialysates: 94.88 % of basal levels and 58.87 % of basal levels and 92.33 % of basal levels and 106.33 % of basal levels and 75.16 % of basal levels and 112.83 % of basal levels and 123.56 % of basal levels and 74.10 % of basal levels
[8]
  HVA release (% of basal levels) measured in dialysates, MEAN: 99.19 % of basal levels
  HVA release (% of basal levels) measured in dialysates: 97.33 % of basal levels and 77.20 % of basal levels and 84.63 % of basal levels and 137.16 % of basal levels and 71.70 % of basal levels and 91.93 % of basal levels and 127.61 % of basal levels and 105.99 % of basal levels
[9]
  HVA release (% of basal levels) measured in dialysates, MEAN: 87.32 % of basal levels
  HVA release (% of basal levels) measured in dialysates: 93.31 % of basal levels and 31.10 % of basal levels and 89.25 % of basal levels and 99.64 % of basal levels and 66.49 % of basal levels and 109.12 % of basal levels and 117.65 % of basal levels and 101.69 % of basal levels
[10]
  HVA release (% of basal levels) measured in dialysates, MEAN: 101.76 % of basal levels
  HVA release (% of basal levels) measured in dialysates: 93.67 % of basal levels and 56.56 % of basal levels and 102.66 % of basal levels and 106.92 % of basal levels and 69.24 % of basal levels and 112.81 % of basal levels and 133.42 % of basal levels and 138.83 % of basal levels
[11]
  HVA release (% of basal levels) measured in dialysates, MEAN: 96.24 % of basal levels
  HVA release (% of basal levels) measured in dialysates: 84.70 % of basal levels and 71.14 % of basal levels and 87.80 % of basal levels and 117.29 % of basal levels and 74.11 % of basal levels
[12]
  HVA release (% of basal levels) measured in dialysates, MEAN: 88.31 % of basal levels
  HVA release (% of basal levels) measured in dialysates: 71.80 % of basal levels and 62.19 % of basal levels and 96.42 % of basal levels and 114.78 % of basal levels and 75.15 % of basal levels and 95.54 % of basal levels and 102.27 % of basal levels
SON-117 3 mg/kg IP, T-30 min-T0 (pre-administration)
  HVA release (% of basal levels) measured in dialysates, MEAN: 97.66 % of basal levels
SON-117 3 mg/kg IP, T-1 h 30-T-1 h (pre-administration)
  HVA release (% of basal levels) measured in dialysates, MEAN: 99.26 % of basal levels
SON-117 3 mg/kg IP, T-1 h-T-30 min (pre-administration)
  HVA release (% of basal levels) measured in dialysates, MEAN: 103.08 % of basal levels
SON-117 3 mg/kg IP, at 3.5 h
  HVA concentration in prefrontal cortex, significant slight increase: 114%
SON-117 at the three doses tested, in function of time
  HVA, difference to the citalopram group (two-way ANOVA): no significant differences
T0-T30 min
  HVA (% of respective basal) MEAN: 101.53 % of respective basal
T30-T1 h
  HVA (% of respective basal) MEAN: 118.07 % of respective basal
T1 h 30-T2 h
  HVA (% of respective basal) MEAN: 112.1 % of respective basal
T1 h-T1 h 30
  HVA (% of respective basal) MEAN: 139.45 % of respective basal
T2 h 30-T3 h
  HVA (% of respective basal) MEAN: 111.13 % of respective basal
T2 h-T2 h 30
  HVA (% of respective basal) MEAN: 107.76 % of respective basal
T3 h 30-T4 h
  HVA (% of respective basal) MEAN: 113.38 % of respective basal
T3 h-T3 h 30
  HVA (% of respective basal) MEAN: 106.61 % of respective basal
T4 h 30-T5 h
  HVA (% of respective basal) MEAN: 102.76 % of respective basal
T4 h-T4 h 30
  HVA (% of respective basal) MEAN: 127.17 % of respective basal
T5 h 30-T6 h
  HVA (% of respective basal) MEAN: 109.97 % of respective basal
T5 h-T5 h 30
  HVA (% of respective basal) MEAN: 112.73 % of respective basal
T6 h 30-T7 h
  HVA (% of respective basal) MEAN: 113.53 % of respective basal
T6 h-T6 h 30
  HVA (% of respective basal) MEAN: 108.85 % of respective basal
T-30 min-T0 (before administration)
  HVA (% of respective basal) MEAN: 101.64 % of respective basal
T-1 h 30-T-1 h (before administration)
  HVA (% of respective basal) MEAN: 97.88 % of respective basal
T-1 h-T-30 min (before administration)
  HVA (% of respective basal) MEAN: 100.48 % of respective basal
